Experimental data as given in US5169841A, “Renin inhibitors” (Hoechst Aktiengesellschaft, priority 1987, dated 1992).

Molecular target: T1, human plasma renin (Homo sapiens, UniProt P00797)
T1 construct: from tissue; host or cells: human EDTA plasma from volunteer subjects
T1 sequence (P00797 67-406): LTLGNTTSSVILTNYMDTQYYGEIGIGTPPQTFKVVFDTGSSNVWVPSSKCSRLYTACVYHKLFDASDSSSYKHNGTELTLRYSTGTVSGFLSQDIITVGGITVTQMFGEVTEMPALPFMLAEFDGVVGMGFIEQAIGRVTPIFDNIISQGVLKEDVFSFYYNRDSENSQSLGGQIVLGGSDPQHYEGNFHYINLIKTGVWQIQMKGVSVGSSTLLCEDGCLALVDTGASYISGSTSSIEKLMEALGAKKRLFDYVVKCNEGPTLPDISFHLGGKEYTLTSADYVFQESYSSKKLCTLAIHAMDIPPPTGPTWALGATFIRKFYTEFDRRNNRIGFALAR
Assay: Inhibition of angiotensin I formation in human plasma (Renin-Maia radioimmunoassay)
Type: biochemical
Details: 37° C., 1 hour, % residual plasma renin activity by angiotensin I RIA
Method: The activity of renin inhibitors can be checked by in vitro tests. These entail the decrease in the formation of angiotensin I being measured in various systems (human plasma, purified human renin).
For example human plasma which contains both renin and angiotensinogen is incubated at 37° C. with the compound to be tested. During this, angiotensin I is liberated from angiotensinogen under the action of renin and can subsequently be measured using a commercially available radioimmunoassay. This liberation of angiotensin is inhibited by renin inhibitors.
The blood is obtained from volunteer subjects (about 0.5 litre per person; Bluko sampler from ASID Bonz and Sohn, Unterschleissheim) and is collected in partially evacuated bottles while cooling in ice. Coagulation is prevented by addition of EDTA (final concentration 10 mM). After centrifugation, (HS 4 Rotor (Sorvall), 3500 rpm, 0°-4° C., 15 min; repeat if necessary), the plasma is carefully removed with a pipette and frozen in suitable portions at -30° C. Only plasma with sufficiently high renin activity are used for the test. Plasma with low renin activity are activated by cold treatment (-4° C., 3 days (prorenin→renin).
Angiotensin I is determined using the Renin-Maia® Kit (Serono Diagnostics S. A., Coinsins, Switzerland). The plasma is incubated in accordance with the instructions given therein:
1000 μl of plasma (defrozen at 0-4° C.)
100 μl of phosphate buffer (ph 7.4)
10 μl of 0.1% Genapol PFIC
12 μl of DMSO or test product
The test products are generally dissolved 10^-2 M in 100% dimethylsulfoxide (DMSO) and diluted appropriately with DMSO; the incubation mixture contains not more than 1% DMSO.
The mixtures are mixed up in ice and placed in a water bath (37° C.) for 1 hour for the incubation. 6 samples in total (each of 100 μl) are taken from an additional mixture without inhibitor and without further incubation for the determination of the initial angiotensin I content of the plasma used.
The concentrations of the test products are selected such that the 10-90% range of enzyme inhibition is approximately covered (at least five concentrations). At the end of the incubation time, three 100 μl samples from each mixture are frozen in precooled Eppendorf tubes on dry ice and stored at about -25° C. for the determination of angiotensin I (means from three individual samples).
The instructions for use of the RIA Kit (Rennin-Maia® Kit, Serono Diagnostics S. A., Coinsins, Switzerland) are followed exactly.
The calibration plot embraces the range from 0.2 to 25.0 ng of angiotensin I per ml. The basic angiotensin I content of the plasma is subtracted from all the measured values. The plasma renin activity (PRA) is reported as ng of Ang I/ml x hour. PRA values in the presence of the test substances are related to a mixture without inhibitor (=100%) and reported as % residual activity. The IC50 value is read off from the plot of % residual activity against the concentration (M) of the test product (logarithmic scale).

IC50 | SMILES
950 nM | CCC[C@H](NC(=O)C(Cc1cccc2ccccc12)CS(=O)(=O)C(C)(C)C)C(=O)NC(CC(C)C)B1OC(C)(C)C(C)(C)O1 (some centres unmarked) [Example 42, [3-t-Butylsulfonyl,2-(1-naphthylmethyl)]propionyl-Nva-[3-methyl,1-(4,4,5,5-tetramethyl-1,3,2-dioxaborolane-2-yl)]butylamide]
550 nM | CC1(C)OB(C(CC2CCCCC2)NC(=O)[C@H](Cc2cccs2)NC(=O)C(Cc2cccs2)CS(=O)(=O)C(C)(C)C)OC1(C)C (some centres unmarked) [Example 43, [3-t-Butylsulfonyl,2-(2-thienylmethyl)]propionyl-Thi-[cyclohexylmethyl,(4,4,5,5-tetramethyl-1,3,2-dioxaborolane-2-yl)]methylamide]
1500 nM | CCC[C@H](NC(=O)C(Cc1cccc2ccccc12)CS(=O)(=O)C(C)(C)C)C(=O)NC(CC1CCCC1)B1OC(C)(C)C(C)(C)O1 (some centres unmarked) [Example 50]
2400 nM | CCC[C@H](NC(=O)C(Cc1ccccc1)CS(=O)(=O)C(C)(C)C)C(=O)NC(CC1CCCC1)B1OC(C)(C)C(C)(C)O1 (some centres unmarked) [Example 44, (2-Benzyl,3-t-butylsulfonyl)propionyl-Nva-[cyclopentylmethyl,(4,4,5,5-tetramethyl-1,3,2-dioxaborolane-2-yl)]-methylamide]
1500 nM | CCC[C@H](NC(=O)C(Cc1cccs1)CS(=O)(=O)C(C)(C)C)C(=O)NC(CC1CCCCCC1)B1OC(C)(C)C(C)(C)O1 (some centres unmarked) [Example 41, [3-t-Butylsulfonyl,2-(2-thienylmethyl)]propionyl-Nva-[cycloheptylmethyl,(4,4,5,5-tetramethyl-1,3,2-dioxaborolane-2-yl)]methylamide]
2800 nM | CCC[C@H](NC(=O)[C@H](Cc1ccccc1)NC(=O)CC(C)C)C(=O)NC(CC1CCC(C)CC1)B1OC(C)(C)C(C)(C)O1 (stereo partly drawn) [Example 15, Iva-Phe-Nva-[(4-methylcyclohexyl)methyl,(4,4,5,5-tetramethyl-1,3,2-dioxaborolane-2-yl)]methylamide]
280 nM | CCC[C@H](NC(=O)C(Cc1cccs1)CS(=O)(=O)C(C)(C)C)C(=O)NC(CC1CCCCC1)B1OC(C)(C)C(C)(C)O1 (some centres unmarked) [Example 35, [3-t-Butylsulfonyl,2-(2-thienylmethyl)]propionyl-Nva-[cyclohexylmethyl,(4,4,5,5-tetramethyl-1,3,2-dioxaborolane-2-yl)]methylamide]
2400 nM | CCC[C@H](NC(=O)[C@H](Cc1ccccc1)NC(=O)CC(C)C)C(=O)NC(CC1CCCCC1)B1OC2CC3CC(C3(C)C)C2(C)O1 (single isomer, unassigned) [Example 13, Iva-Phe-Nva-[cyclohexylmethyl, (-)-pinanedioxyboryl]-methylamide]
420 nM | CCC[C@H](NC(=O)[C@H](Cc1ccccc1)NC(=O)CC(C)C)C(=O)NC(CC1CCCCC1)B1OC(C)(C)C(C)(C)O1 (stereo partly drawn) [Example 1, Iva-Phe-Nva-[cyclohexylmethyl,(4,4,5,5-tetramethyl-1,3,2-dioxaborolane-2-yl)]methylamide]
3600 nM | CC1(C)OB(C(CC2CCCCCC2)NC(=O)[C@H](Cc2cccs2)NC(=O)C(Cc2cccs2)CS(=O)(=O)C(C)(C)C)OC1(C)C (some centres unmarked) [Example 40, [3-t-Butylsulfonyl,2-(2-thienylmethyl)]propionyl-thi[cycloheptylmethyl,(4,4,5,5-tetramethyl-1,3,2-dioxaborolane-2-yl)]methylamide]
1800 nM | CCC[C@H](NC(=O)C(Cc1cccc2ccccc12)CS(=O)(=O)C(C)(C)C)C(=O)NC(CC(CC)CC)B1OC(C)(C)C(C)(C)O1 (some centres unmarked) [Example 51, [3-t-Butylsulfonyl,2-(1-naphthylmethyl)]propionyl-Nva-[3-ethyl,1-(4,4,5,5-tetramethyl-1,3,2-dioxaborolane-2-yl)]-pentylamide]
2000 nM | CC(C)CC(=O)N[C@@H](Cc1ccccc1)C(=O)N[C@@H](Cc1c[nH]cn1)C(=O)NC(CC1CCCCC1)B1OC(C)(C)C(C)(C)O1 (stereo partly drawn) [Example 3, Iva-Phe-His-[cyclohexylmethyl,(4,4,5,5-tetramethyl-1,3,2-dioxaborolane-2-yl)]methylamide]
2100 nM | CC(C)[C@H](NC(=O)C(Cc1ccccc1)CS(=O)(=O)C(C)(C)C)C(=O)NC(CC1CCCCC1)B1OC(C)(C)C(C)(C)O1 (some centres unmarked) [Example 39, (2-Benzyl,3-t-butylsulfonyl)propionyl-Val-[cyclohexylmethyl,(4,4,5,5-tetramethyl-1,3,2-dioxaborolane-2yl)]-methylamide]
1000 nM | CCCC[C@H](NC(=O)[C@H](Cc1ccccc1)NC(=O)CC(C)C)C(=O)NC(CC1CCCCC1)B1OC(C)(C)C(C)(C)O1 (stereo partly drawn) [Example 2, Iva-Phe-Nle-[cyclohexylmethyl,(4,4,5,5-tetramethyl-1,3,2-dioxaborolane-2-yl)]methylamide]
620 nM | CCC[C@H](NC(=O)C(Cc1ccccc1)CS(=O)(=O)C(C)(C)C)C(=O)NC(CC1CCCCC1)B1OC(C)(C)C(C)(C)O1 (some centres unmarked) [Example 36, (2-Benzyl,3-t-butylsulfonyl)propionyl-Nva-[cyclohexylmethyl,(4,4,5,5-tetramethyl-1,3,2-dioxaborolane-2-yl)]methylamide]
8000 nM | CC(C)CC(=O)N[C@@H](Cc1ccccc1)C(=O)N[C@@H](Cc1c[nH]cn1)C(=O)NC(CC1CCCCCC1)B1OC(C)(C)C(C)(C)O1 (stereo partly drawn) [Example 19, Iva-Phe-His-[cycloheptylmethyl,(4,4,5,5-tetramethyl-1,3,2-dioxaborolane-2-yl)]methylamide]
670 nM | CC(C)CC(=O)N[C@@H](Cc1ccccc1)C(=O)N[C@@H](Cc1cccs1)C(=O)NC(CC1CCCCC1)B1OC(C)(C)C(C)(C)O1 (stereo partly drawn) [Example 7, Iva-Phe-Thi-[cyclohexylmethyl,(4,4,5,5-tetramethyl-1,3,2-dioxaborolane-2-yl)]methylamide]
2800 nM | CCC[C@H](NC(=O)C(Cc1ccccc1)CS(=O)(=O)C(C)(C)C)C(=O)NC(CC(CC)CC)B1OC(C)(C)C(C)(C)O1 (some centres unmarked) [Example 52, (2-Benzyl,3-t-butylsulfonyl)propionyl-Nvu-[3-ethyl,1-(4,4,5,5-tetramethyl-1,3,2-dioxaborolane-2-yl)]pentylamide]
9000 nM | CC(C)CC(=O)N[C@@H](Cc1ccccc1)C(=O)N[C@@H](Cc1c[nH]cn1)C(=O)NC(CC1CCCCCCC1)B1OC(C)(C)C(C)(C)O1 (stereo partly drawn) [Example 18, Iva-Phe-His-[cycloctylmethyl,(4,4,5,5-tetramethyl-1,3,2-dioxaborolane-2-yl)]methylamide]
550 nM | CCC[C@H](NC(=O)[C@H](Cc1ccccc1)NC(=O)CC(C)C)C(=O)NC(CC1CCCCC1)B(O)O (stereo partly drawn) [Example 5, Iva-Phe-Nva-(cyclohexylmethyl,dihydroxyboryl)methylamide]
3000 nM | CCC[C@H](NC(=O)[C@H](Cc1ccccc1)NC(=O)CC(C)C)C(=O)NC(CC1CCCCCC1)B1OC(C)(C)C(C)(C)O1 (some centres unmarked) [Example 16]
900 nM | CC1(C)OB(C(CC2CCCCC2)NC(=O)[C@H](CC(N)=O)NC(=O)C(Cc2cccs2)CS(=O)(=O)C(C)(C)C)OC1(C)C (some centres unmarked) [Example 54, (3-t-Butylsulfonyl,2-(2-thienylmethyl)]propionyl-Asn-[cyclohexylmethyl,(4,4,5,5-tetramethyl-1,3,2-dioxaborolane-2-yl)]methylamide]
450 nM | CC(C)CC(=O)N[C@@H](Cc1cccs1)C(=O)N[C@@H](Cc1c[nH]cn1)C(=O)NC(CC1CCCCC1)B1OC(C)(C)C(C)(C)O1 (stereo partly drawn) [Example 4, Iva-Thi-His-[cyclohexylmethyl,(4,4,5,5-tetramethyl-1,3,2-dioxaborolane-2-yl)]methylamide]
